Reference: patent US9856256B2, “Pyridino[1,2-A]pyrimidone analogue used as P13K inhibitor” (CHIA TAI TIANQING PHARMACEUTICAL GROUP CO., LTD., priority 2014, dated 2018)

Assays:
MCF-7 cells = assay: In vitro cell activity assay (MCF-7, insulin stimulation, ELISA-One); format: cell-based; conditions: Homo sapiens, MCF7, compound 2 hours in serum-free media, then 10 μg/ml insulin 30 min
Description: Experimental Steps and Method Comprise:
1. MCF-7 cells were seeded at 2,5000 cells per well in a 96 well tissue culture plate in a complete media containing 10%0/FBS.
3. The cells were treated with 10 μg/ml insulin in serum-free media for 30 min.
4. During waiting period, lysis solution was prepared as below:
a) Enhancer Solution needs to be taken out from the refrigerator to be thawed.
b) Concentrated lysis solution was prepared by diluting Enhancer Solution 10-fold in 5× Lysis Buffer.
c) Lysis solution was prepared by diluting concentrated lysis solution 5-fold with ddH2O.
5. Any media were removed from wells and the wells were rinsed with PBS once quickly.
6. 50 μL of freshly prepared lysis solution were added into each well, with shaking at room temperature for 10 min.
7. After confirming that all cells get detached from wells, the lysis solution together with the cell debris was transferred to 1.5 ml tubes.
8. The tubes were vortexed several times to thoroughly mix the lysis solution and cells, and then, and then the mixture was centrifuged at 12,000 g for 10 min at 4° C.;
9. The desired number of ELISA-One microplate strips was determined. Unused strips were removed from frame and returned to storage pouch and seal. Wells for use in the assay were rinsed with 200 μL ddH2O to remove preservatives prior to use.
10. 50 μL of antibody mixture solution was added into each well. (Antibody mixture solution was prepared by mixing capture antibody reagent and detection antibody reagent equally, avoid vortexing)
11. 25 μL of lysate was added into each well of the ELISA-One microplate. The microplate was covered with adhesive seal and incubated for 1 hour at room temperature on a microplate shaker.
12. Each well was washed with 150 μL 1× wash buffer 3 times. After final wash, any remaining wash buffer was removed from wells. If necessary, leave microplate in 1× Wash Buffer for up to 30 min, until substrate mixture solution has been prepared.
13. The substrate mixture solution should be prepared when used, 100 μL of substrate mixture solution was added into each well, and then the microplate was sealed with tin foil and incubated at room temperature for 10 minutes on a microplate shaker.
14. 10 μL of stop solution was added into each well, and then mixed slightly (5-10 seconds) on a microplate shaker.
15. Corresponding ELISA-One filter set was installed to read the fluorescence signal intensity.

PI3K (p110α) = PI3K (p110α) (Homo sapiens, UniProt P42336); assay: In vitro enzyme activity assay, PI3K (p110α) kinase, Method II (ADP-Glo assay); format: biochemical; design: purchased Millipore 14-602-K; conditions: read-out: PI3K (p110α) enzyme activity_IC50
PI3K (p110α), sequence (P42336 whole entry): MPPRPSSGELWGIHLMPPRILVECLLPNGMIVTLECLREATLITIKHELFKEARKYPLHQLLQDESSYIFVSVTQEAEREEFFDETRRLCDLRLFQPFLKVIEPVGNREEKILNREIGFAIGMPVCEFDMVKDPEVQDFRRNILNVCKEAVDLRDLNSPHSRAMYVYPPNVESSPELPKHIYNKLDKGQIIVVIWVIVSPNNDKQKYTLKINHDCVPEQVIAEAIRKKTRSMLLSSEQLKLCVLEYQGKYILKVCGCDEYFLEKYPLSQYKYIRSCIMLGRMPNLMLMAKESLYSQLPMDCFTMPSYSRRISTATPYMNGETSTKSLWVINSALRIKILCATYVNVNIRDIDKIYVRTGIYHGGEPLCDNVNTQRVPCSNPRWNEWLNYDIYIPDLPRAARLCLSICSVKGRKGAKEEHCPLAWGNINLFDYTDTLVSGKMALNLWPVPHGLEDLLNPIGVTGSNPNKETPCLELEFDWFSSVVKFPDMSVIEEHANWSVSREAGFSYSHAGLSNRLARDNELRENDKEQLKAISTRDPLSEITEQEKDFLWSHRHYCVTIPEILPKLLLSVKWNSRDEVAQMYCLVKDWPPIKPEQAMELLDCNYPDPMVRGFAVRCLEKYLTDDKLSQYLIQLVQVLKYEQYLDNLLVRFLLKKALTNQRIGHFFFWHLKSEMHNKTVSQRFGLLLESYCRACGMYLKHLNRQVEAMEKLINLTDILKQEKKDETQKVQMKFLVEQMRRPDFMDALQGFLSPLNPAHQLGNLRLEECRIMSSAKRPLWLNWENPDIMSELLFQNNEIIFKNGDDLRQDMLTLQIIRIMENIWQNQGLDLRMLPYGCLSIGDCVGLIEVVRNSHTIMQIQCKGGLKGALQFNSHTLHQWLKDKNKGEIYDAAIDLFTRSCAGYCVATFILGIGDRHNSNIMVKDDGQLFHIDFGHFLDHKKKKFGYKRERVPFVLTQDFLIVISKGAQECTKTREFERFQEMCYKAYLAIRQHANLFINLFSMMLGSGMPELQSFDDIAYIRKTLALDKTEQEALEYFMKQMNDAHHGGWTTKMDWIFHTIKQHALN
PI3K (p110α), sequence (P27986 whole entry partner): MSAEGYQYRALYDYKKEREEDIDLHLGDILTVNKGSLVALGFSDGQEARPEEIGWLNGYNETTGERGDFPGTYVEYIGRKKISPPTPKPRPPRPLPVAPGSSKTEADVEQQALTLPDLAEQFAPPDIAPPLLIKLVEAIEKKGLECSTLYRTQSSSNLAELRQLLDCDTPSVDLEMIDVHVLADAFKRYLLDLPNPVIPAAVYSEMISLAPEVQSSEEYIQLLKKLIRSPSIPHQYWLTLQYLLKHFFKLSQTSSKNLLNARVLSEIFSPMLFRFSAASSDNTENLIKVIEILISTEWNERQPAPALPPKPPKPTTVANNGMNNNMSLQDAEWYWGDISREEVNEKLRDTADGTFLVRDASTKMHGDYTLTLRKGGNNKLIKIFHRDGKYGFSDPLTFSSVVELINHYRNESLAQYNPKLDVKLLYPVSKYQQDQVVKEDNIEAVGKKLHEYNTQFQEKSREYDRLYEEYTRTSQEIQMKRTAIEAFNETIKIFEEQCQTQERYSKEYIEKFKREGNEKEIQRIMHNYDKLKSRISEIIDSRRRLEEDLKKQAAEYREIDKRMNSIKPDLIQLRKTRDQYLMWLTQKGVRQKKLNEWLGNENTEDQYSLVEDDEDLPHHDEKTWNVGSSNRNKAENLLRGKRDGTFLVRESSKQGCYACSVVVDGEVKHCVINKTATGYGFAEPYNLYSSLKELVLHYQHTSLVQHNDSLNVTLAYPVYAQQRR
Description: PI3K (p110α) kinase activities of the compounds in all the examples of the present invention were tested via the following two methods, respectively.
Dilution of the Compound:
The compound to be tested was diluted with a 3-fold concentration gradient, and 10 concentrations (from 10000 nM to 0.5 nM) were obtained in total.
50 nL of the compound was transferred to a reaction plate (PerkinElmer #6007299) and 3 μL of enzyme/substrate mixture (0.33 nM PI3Kalpha, Millipore #14-602-K/166.5 μM PIP2) was added. After 20 min incubation, 2 uL of ATP solution (100 uM) was added to initiate the reaction. After reacting for 2 hours at room temperature, 5 μL of ADP-Glo reagent was added to terminate the kinase reaction. Then the mixture was incubated at room temperature for 60 min to completely digest the remaining unreacted ATP, 10 uL of kinase detection reagent was added, and after 40 min incubation at room temperature, […] was readed on an Envision. PIP2, ATP, ADP-Glo and the kinase detection reagent were all from ADP-Glo kinase assay kit (Promega #V1792).
IC50 was calculated using standard 4-parameter fit method (Model205, XL-fit, iDBS).

mTOR = target: T1, mTOR (Homo sapiens, UniProt P42345); assay: In vitro enzyme activity assay, mTOR kinase (32P-ATP, P81 filter-binding); format: biochemical; conditions: 4EBPI substrate, 10 μM ATP; read-out: mTOR enzyme activity_IC50
T1 construct: recombinant human mTOR fragment (amino acid 1360-2549, molecular weight=163.9 kDa); GST-tag (N); host or cells: insect cells
T1 sequence (P42345 1360-2549): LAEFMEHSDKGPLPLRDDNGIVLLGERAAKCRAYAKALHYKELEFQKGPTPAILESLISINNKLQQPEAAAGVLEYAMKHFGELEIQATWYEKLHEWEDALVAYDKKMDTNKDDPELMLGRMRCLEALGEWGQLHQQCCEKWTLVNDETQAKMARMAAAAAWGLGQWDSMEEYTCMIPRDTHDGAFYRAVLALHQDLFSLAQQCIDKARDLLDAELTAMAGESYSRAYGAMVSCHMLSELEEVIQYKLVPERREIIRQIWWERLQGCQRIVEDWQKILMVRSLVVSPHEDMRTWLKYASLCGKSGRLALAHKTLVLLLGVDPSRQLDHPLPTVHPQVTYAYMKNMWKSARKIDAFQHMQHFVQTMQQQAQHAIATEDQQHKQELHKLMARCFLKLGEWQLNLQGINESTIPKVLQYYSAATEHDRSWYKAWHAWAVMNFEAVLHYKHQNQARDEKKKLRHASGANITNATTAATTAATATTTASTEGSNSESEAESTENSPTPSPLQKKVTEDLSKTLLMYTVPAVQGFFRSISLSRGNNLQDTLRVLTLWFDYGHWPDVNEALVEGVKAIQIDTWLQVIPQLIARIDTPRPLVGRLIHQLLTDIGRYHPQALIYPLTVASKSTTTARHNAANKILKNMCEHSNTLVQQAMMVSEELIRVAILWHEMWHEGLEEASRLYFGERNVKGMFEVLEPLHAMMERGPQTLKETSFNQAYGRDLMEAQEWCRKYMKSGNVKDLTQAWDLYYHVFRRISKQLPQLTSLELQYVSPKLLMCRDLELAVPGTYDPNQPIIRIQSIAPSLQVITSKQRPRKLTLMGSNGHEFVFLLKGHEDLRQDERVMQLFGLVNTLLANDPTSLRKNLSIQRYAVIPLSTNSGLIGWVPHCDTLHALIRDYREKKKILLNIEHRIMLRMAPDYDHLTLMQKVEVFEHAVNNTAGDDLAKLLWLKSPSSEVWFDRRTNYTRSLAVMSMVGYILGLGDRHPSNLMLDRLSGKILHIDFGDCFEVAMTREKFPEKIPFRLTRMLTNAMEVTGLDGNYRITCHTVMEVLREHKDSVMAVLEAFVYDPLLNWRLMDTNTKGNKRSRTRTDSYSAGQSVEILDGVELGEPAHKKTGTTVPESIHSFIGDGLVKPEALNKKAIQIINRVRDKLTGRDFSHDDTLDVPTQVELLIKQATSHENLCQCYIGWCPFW
Description: mTOR kinase activities of the compounds in all the examples of the present invention were tested via the following method.
Reaction buffer: 20 mM Hepes (pH 7.5), 10 mM MgCl2, 2 mM MnCl2, 1 mM EGTA, 0.02% Brij35, 0.02 mg/mL BSA, 0.1 mM Na3VO4, 2 mM DTT, and 2% DMSO.
Enzyme for reaction: recombinant human mTOR fragment (amino acid 1360-2549, molecular weight=163.9 kDa) with a GST-tag at the N-terminus, which was expressed in insect cells.
Substrate for reaction: recombinant full-length human 4EBPI (molecular weight=13.6 kDa) with a His-tag at the N-terminus, which was expressed in bacteria.
Reaction conditions: […] 4EBPI and 10 μM ATP.
1. adding the reaction substrate and other reaction factors into the freshly prepared reaction buffer;
2. adding the kinase into the substrate reaction solution, and mixing gently;
3. transferring the compound dissolved in 100% DMSO into the kinase reaction solution by using Acoustic technique (Echo550; nanoliter rang), and incubating at room temperature for 20 minutes;
4. adding an appropriate concentration of ^32P-ATP into the reaction system;
5. incubating at room temperature for 2 hours;
6. detecting the kinase activity by using P81 filter-binding method.

Structure (SMILES) | IC50 (MCF-7 cells) [nM] | IC50 (PI3K (p110α)) [nM] | IC50 (mTOR) [nM]
COc1ncc(-c2ccc3ncc(OCCN4CCOCC4)c(=O)n3c2)cc1NS(=O)(=O)c1ccc(F)c(F)c1 [Compound 62] | 100 to 250 | ≤ 1 | 
COc1ncc(-c2ccc3ncc(OCCNS(C)(=O)=O)c(=O)n3c2)cc1NS(=O)(=O)c1ccc(F)cc1Cl [Compound 23] | 50 to 100 | ≤ 1 | 
COc1ncc(-c2ccc3ncc(OCCNCCO)c(=O)n3c2)cc1NS(=O)(=O)c1ccc(F)cc1Cl [Compound 81] | > 250 | ≤ 1 | 
COc1ncc(-c2ccc3ncc(OCC(C)N4CCOCC4)c(=O)n3c2)cc1NS(=O)(=O)c1ccc(F)cc1Cl (stereo not drawn) [Compound 66] | ≤ 50 | 1 to 50 | 
COc1ncc(-c2ccc3ncc(OCCN(C)C)c(=O)n3c2)cc1NS(=O)(=O)c1ccc(F)cc1Cl [Compound 25] | ≤ 50 | ≤ 1 | > 200
COc1ncc(-c2ccc3ncc(OCC4CCCN4C)c(=O)n3c2)cc1NS(=O)(=O)c1sc(C)nc1C (stereo not drawn) [Compound 34] | 50 to 100 | ≤ 1 | 
COc1ncc(-c2ccc3ncc(OCCN4CCNCC4)c(=O)n3c2)cc1NS(=O)(=O)c1ccc(F)cc1Cl [Compound 75] | > 250 | ≤ 1 | 
COc1ncc(-c2ccc3ncc(OCCN4CCCC4)c(=O)n3c2)cc1NS(=O)(=O)c1ccc(F)cc1Cl [Compound 27] | 50 to 100 | ≤ 1 | 50 to 200
COc1ncc(-c2ccc3ncc(OCCN4CCOC(C)C4)c(=O)n3c2)cc1NS(=O)(=O)c1ccc(F)cc1Cl (stereo not drawn) [Compound 89] | ≤ 50 | ≤ 1 | 
COc1ncc(-c2ccc3ncc(OCCN4CCC(O)CC4)c(=O)n3c2)cc1NS(=O)(=O)c1ccc(F)cc1Cl [Compound 79] | 100 to 250 | ≤ 1 | 
COc1ncc(-c2ccc3ncc(OCCN4CCN(C(C)=O)CC4)c(=O)n3c2)cc1NS(=O)(=O)c1ccc(F)cc1Cl [Compound 90] | 50 to 100 | ≤ 1 | 
COc1ncc(-c2ccc3ncc(OCC4CCCN4)c(=O)n3c2)cc1NS(=O)(=O)c1sc(C)nc1C (stereo not drawn) [Compound 33] | > 250 | ≤ 1 | 
COc1ncc(-c2ccc3ncc(OCCN4CCOCC4)c(=O)n3c2)cc1NS(=O)(=O)c1c(Cl)cccc1Cl [Compound 63] | ≤ 50 | ≤ 1 | 
COc1ncc(-c2ccc3ncc(OCC4CCCN4)c(=O)n3c2)cc1NS(=O)(=O)c1ccc(F)cc1Cl (stereo not drawn) [Compound 78] | > 250 | 1 to 50 | 
COc1ncc(-c2ccc3ncc(OCC4(N)CC4)c(=O)n3c2)cc1NS(=O)(=O)c1ccc(F)cc1Cl [Compound 32] | 50 to 100 | ≤ 1 | 50 to 200
COc1ncc(-c2ccc3ncc(OCCN4CCOCC4C)c(=O)n3c2)cc1NS(=O)(=O)c1ccc(F)cc1Cl (stereo not drawn) [Compound 88] | 50 to 100 | ≤ 1 | 
COc1ncc(-c2ccc3ncc(OCCN4CCN(C)CC4)c(=O)n3c2)cc1NS(=O)(=O)c1sc(C)nc1C [Compound 4] | 50 to 100 | ≤ 1 | 

Structure (SMILES) | IC50 (MCF-7 cells) [nM] | IC50 (PI3K (p110α)) [nM] | IC50 (mTOR) [nM]
COCCN(CCOc1cnc2ccc(-c3cnc(OC)c(NS(=O)(=O)c4ccc(F)cc4Cl)c3)cn2c1=O)CC(F)(F)F [Compound 95] | ≤ 50 | 1 to 50 | 
COc1ncc(-c2ccc3ncc(OCCN4CCC(C)(O)CC4)c(=O)n3c2)cc1NS(=O)(=O)c1ccc(F)cc1Cl [Compound 82] | 100 to 250 | ≤ 1 | 
COc1ncc(-c2ccc3ncc(OCC(C)(C)N4CCOCC4)c(=O)n3c2)cc1NS(=O)(=O)c1ccc(F)cc1Cl [Compound 70] | 100 to 250 | 1 to 50 | 
COc1ncc(-c2ccc3ncc(OCCN4CCCC4=O)c(=O)n3c2)cc1NS(=O)(=O)c1sc(C)nc1C [Compound 21, N-(2-Methoxy-5-(4-oxo-3-(2-(2-oxopyrrolidin-1-yl)ethoxy)-4H-pyrido[1,2-a]pyrimidin-7-yl)pyridin-3-yl)-2,4-dimethylthiazole-5-sulfonamide] | ≤ 50 | ≤ 1 | 
COc1ncc(-c2ccc3ncc(OC4CCN(C)C4)c(=O)n3c2)cc1NS(=O)(=O)c1ccc(F)cc1Cl (stereo not drawn) [Compound 85] | 50 to 100 | 1 to 50 | 
COc1ncc(-c2ccc3ncc(OCCNC(C)=O)c(=O)n3c2)cc1NS(=O)(=O)c1ccc(F)cc1Cl [Compound 22] | 100 to 250 | ≤ 1 | 
COc1ncc(-c2ccc3ncc(OCCN4CCN(C)CC4)c(=O)n3c2)cc1NS(=O)(=O)c1ccc(F)cc1Cl [Compound 68] | ≤ 50 | ≤ 1 | 
COc1ncc(-c2ccc3ncc(OCCN4CCOCC4=O)c(=O)n3c2)cc1NS(=O)(=O)c1ccc(F)cc1Cl [Compound 65] | ≤ 50 | ≤ 1 | 
COc1ncc(-c2ccc3ncc(CN4CCOCC4)c(=O)n3c2)cc1NS(=O)(=O)c1sc(C)nc1C [Compound 51, N-(2-Methoxy-5-(3-(morpholinomethyl)-4-oxo-4H-pyrido[1,2-a]pyrimidin-7-yl)pyridin-3-yl)-2,4-dimethylthiazole-5-sulfonamide] |  | 1 to 50 | 
COc1ncc(-c2ccc3ncc(OCCN4C5CCC4COC5)c(=O)n3c2)cc1NS(=O)(=O)c1ccc(F)cc1Cl [Compound 87] |  | ≤ 1 | 
COc1ncc(-c2ccc3ncc(OCCN4CC5CC4CN5C)c(=O)n3c2)cc1NS(=O)(=O)c1sc(C)nc1C (stereo not drawn) [Compound 5] | > 250 | ≤ 1 | 
COc1ncc(-c2ccc3ncc(OCC4CC(F)(F)CN4)c(=O)n3c2)cc1NS(=O)(=O)c1ccc(F)cc1Cl (stereo not drawn) [Compound 83] |  | 1 to 50 | 
COc1ncc(-c2ccc3ncc(OC4CN(C)C4)c(=O)n3c2)cc1NS(=O)(=O)c1ccc(F)cc1Cl [Compound 73] |  | 1 to 50 | 
COc1ncc(-c2ccc3ncc(OCCN(CCO)CCO)c(=O)n3c2)cc1NS(=O)(=O)c1ccc(F)cc1Cl [Compound 80] |  | ≤ 1 | 
COc1ncc(-c2ccc3ncc(OC4CCN(C)CC4)c(=O)n3c2)cc1NS(=O)(=O)c1ccc(F)cc1Cl [Compound 74] |  | 1 to 50 | 
COc1ncc(-c2ccc3ncc(OCC4CCNC4)c(=O)n3c2)cc1NS(=O)(=O)c1ccc(F)cc1Cl (stereo not drawn) [Compound 77] | > 250 | 1 to 50 | 
